In patent publication US20110269838A1, “NOVEL PROCESSES AND PURE POLYMORPHS” (priority 2008, published 2011):

Assay: Polymorphic stability on storage
Assay type: physicochemical
Details: kept at 40° C.±2° C. and relative humidity 75%±5% for 6 months; samples prepared in examples 1 to 5

## O=C(CCCCCCC(=O)Nc1ccccc1)NO [crystalline vorinostat form I, N-hydroxy-N′-phenyl-octanediamide]
  polymorphic stability (conversion over time to other polymorphs): no conversion over time to other polymorphs
